In the METLIN SMRT retention time set (Domingo-Almenara et al. 2019):

Experiment: gradient 5% acetonitrile 3 min, to 50% in 2 min, to 85% in 15 min, held 3 min, 100 µL/min
Conditions: column: Zorbax Extend-C18 2.1 x 50 mm; eluents: water / acetonitrile, 0.1% formic acid
How it was run: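 Pure standards were analyzed in mixtures of ~100 molecules using HPLC coupled to a quadrupole time-of-flight mass spectrometer, in both positive and negative ionization mode. Separation used a Zorbax Extend-C18 column (2.1 × 50 mm, 1.8 μm) at 100 μL/min, with water and acetonitrile each containing 0.1% formic acid. Dead and dwell volumes were 40 μL and 900 μL, and data were collected over 3 months. Retention time was read from computationally picked adduct peaks, each inspected manually.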

| Structure (SMILES) | RP-LC retention time [s] |
| --- | --- |
| CC(C)CC(=O)NC(Cc1ccccc1)c1nnc(N2CCN(C)CC2)o1 (centres undefined) | 621 |
| CCCN1CCc2cc(O)cc3c2[C@H]1Cc1ccc(O)c(O)c1-3 | 646 |
| O=C(c1cccs1)N1CCCCC1c1nncn1Cc1ccccc1 (centres undefined) | 642 |
| CC(C)Cc1nc(N2CCN(C(=O)c3ccc([N+](=O)[O-])cc3)CC2)c(C#N)c2c1COC(C)(C)C2 | 1220 |
| Cc1ccc(Cl)cc1N1CCN(c2ccc3cc(S(=O)(=O)N4CCCCC4)ccc3n2)CC1 | 1000 |
| CCOc1ccc(C(C)NC(=O)C2CCN(c3cnc4nccnc4c3)CC2)cc1 (centres undefined) | 712 |
| CCCNC(=O)C1CCCN(c2ccc(SCC(=O)Nc3ccc(S(C)(=O)=O)cc3)nn2)C1 (centres undefined) | 614 |
| Cc1cc2c(c(=O)n(-c3ccc(F)cc3)c(=O)n2CC(=O)N2CCCc3ccccc32)n1C | 893 |
| CCc1nc(OCC(=O)Nc2ccccc2F)c2ccccc2n1 | 775 |
| C=CCn1c(NCc2ccccc2Cl)nc2ccccc21 | 699 |
| Cc1cc(C(=O)Nc2nnc(SCC(=O)Nc3ccccc3C(F)(F)F)s2)no1 | 767 |
| CCOCC(=O)N1CCCN(C2=NS(=O)(=O)C(c3ccc(Cl)cc3)=C2C)CC1 | 761 |
| COc1ccc(NC(=O)C2CC(=O)N(c3n[nH]c4ccccc34)C2)cn1 (centres undefined) | 646 |
| Cc1ccc(C(C)NC(=O)c2ccc3c(c2)nc2n3CCN(C(C)C)C2=O)c(C)c1 (centres undefined) | 786 |
| Cc1cc(C(=O)NCC(C)C)c2cccc(C)c2n1 | 697 |
| O=C(Cc1cccn1-c1ccccc1)NCc1cc(F)ccc1F | 936 |
| CNS(=O)(=O)c1ccc(Cl)c(-c2nnc(-c3ccc(OC)cc3)o2)c1 | 883 |
| O=C(c1ccsc1)N1CCC(Cc2nnc(-c3ccccc3)o2)CC1 | 774 |
| O=[N+]([O-])c1ccc2c(c1)CN(S(=O)(=O)c1cccs1)CC2 | 878 |
| CC(C)(C)C(=O)Nc1ccc(N2CCN(CCC#N)CC2)cc1C(=O)O | 611 |
| CCCn1cnc2cc(CNC(=O)c3ccc(Cl)c(Cl)c3)ccc21 | 683 |
| COC[C@@H]1CN(Cc2c(C)n[nH]c2C)C[C@H]1c1ccncc1 | 559 |
| O=C(NCCCN1CCCCCC1)C(c1ccccc1)C1CCCCC1 (centres undefined) | 875 |

| Structure (SMILES) | RP-LC retention time [s] |
| --- | --- |
| O=C(CS(=O)(=O)c1c[nH]c2ccccc12)Nc1ccc2c(c1)OCCO2 | 651 |
| C=CCn1c(=O)c2ccccc2n(Cc2nc(-c3ccc(OC)cc3)no2)c1=O | 1020 |
| COC(=O)c1ccc2c(=O)n(-c3cc(F)cc(F)c3)c(N3CCN(c4ccccn4)CC3)nc2c1 | 753 |
| CCCCS(=O)(=O)N1CCN(c2ccc(Nc3cc(C)ccn3)nn2)CC1 | 585 |
| O=C(NCCCN1CCCCC1)C1CCCN(c2ncc(-c3ccc(F)cc3)cn2)C1 (centres undefined) | 684 |
| Cn1c(=O)n(C)c2cc(N3CCOCC3)c(NC(=O)Cc3ccccc3)cc21 | 752 |
| Cc1nc(N2CCOCC2)c2c(C(=O)Nc3cccc(F)c3)c(C)oc2n1 | 817 |
| CCc1nc(-c2csc(S(=O)(=O)N3CCC(C(=O)NCc4ccc(Cl)cc4)CC3)c2)no1 | 994 |
| Cc1cc(S(=O)(=O)N2CCC3(CC2)NCCCN=C3NC2CCCC2)ccc1F | 768 |
| CCc1ccc(Oc2cc(N3CCC(C(=O)N4CCN(c5ccccn5)CC4)CC3)ncn2)cc1 | 689 |
| O=C(NCc1cccs1)NCC1(CO)CC1 | 592 |
| Cc1ccc2c(Nc3cccc(Br)c3)c(C(=O)N3CCOCC3)cnc2n1 | 611 |
| COC(=O)c1ccsc1NC(=O)C1COCC(=O)N1Cc1ccccc1 (centres undefined) | 786 |
| CCCOc1ccc(CN2C[C@@H](CO)[C@H](N(C)C)C2)cc1OC | 551 |
| CCCNC(=O)NCCc1cn(CC)c2ncccc12 | 612 |
| CCc1ccccc1S(=O)(=O)N1CCC(C(=O)NCc2csc(-c3ccccc3)n2)CC1 | 999 |
| Cc1ccc(NC(=O)Cn2nc3c(Oc4ccccc4C)nccn3c2=O)cc1C | 923 |
| Cc1ccc(NC(=O)Cn2ncc3c(c2=O)N(C)C(=O)CS3)c(Br)c1 | 714 |
| COc1ccc(CC(=O)N2CCC3(C2)C(=O)Nc2ccc(OC)cc23)c(Cl)c1 (centres undefined) | 768 |
| CCOc1ccccc1C(=O)N(CC)c1nc(-c2ccc(C)cc2)cs1 | 1420 |
| CCOC(=O)c1c(S(=O)(=O)N2CCC(C(=O)Nc3ccc(Cl)cc3)CC2)c(C)n(C)c1C | 913 |
| O=C(N[C@H]1C[C@@H]2C[C@H]1CN2S(=O)(=O)c1ccccc1C(F)(F)F)c1ccccc1 | 921 |

Continued, values first:

| RP-LC retention time [s] | Structure (SMILES) |
| --- | --- |
| 640 | CC(C)CN(Cc1cccnc1)C1CN(C(=O)NCc2ccc(F)cc2)C1 |
| 634 | Cc1ccc(C(=O)NCc2nc(-c3ccc4c(c3)ncn4C)no2)cc1 |
| 725 | CC(C)CCNC(=O)N1CC(c2nc(-c3cccnc3)no2)C2(CCOCC2)C1 (centres undefined) |
| 884 | Cn1c(=O)cnc2ccc(N3CCCC3)nc21 |
| 563 | COCCN1CCC(CNC(=O)C(=O)Nc2cccc(SC)c2)CC1 |
| 772 | COC(=O)c1ncn2c1C(=O)N(Cc1ccccc1F)C(C)(C(=O)NCc1ccc(C)cc1)C2 (centres undefined) |
| 582 | NC(=O)C1CCN(C(=O)CN2CCN(c3ccccc3)CC2)CC1 |
| 610 | Cc1cccc(NC(=O)CN2CCC(COCc3ccccc3)CC2)c1C |
| 930 | Cc1ccc(NC(=O)Cc2csc3nc(-c4ccc(C)c(C)c4)cn23)c(C)c1 |
| 678 | COc1cccc(CNC2=NCCNC23CCN(S(=O)(=O)c2ccccc2)CC3)c1 |
| 604 | O=C1CSc2ccc(S(=O)(=O)N3CCN(c4ccccn4)CC3)cc2N1 |
| 970 | Cc1ccc(NC(=O)N2CCC(C(C)C(=O)Nc3cc(C)cc(C)c3)CC2)cc1 (centres undefined) |
| 674 | Cn1c(=O)c(N2CCN(S(=O)(=O)c3ccc(Cl)cc3)CC2)nc2ccncc21 |
| 965 | Cc1nc(-c2ccc3c(c2)CCN3C(=O)Cc2cccs2)cs1 |
| 710 | Cc1cc(C)nc(Nc2nc(-c3ccccc3)c(CC(=O)O)s2)n1 |
| 850 | O=C(Cn1cccc(-c2nc(-c3ccc(F)cc3)no2)c1=O)Nc1ccc2c(c1)OCO2 |
| 754 | CCn1ccc2c(cc(C(=O)Nc3ccc(F)cc3)n2C)c1=O |
| 641 | Cn1ccc2cc(S(=O)(=O)N3CCC(C(=O)NCc4ccccn4)CC3)ccc21 |
| 799 | Cc1ccc(OCC(=O)N(C)CC2(C)CCOCC2)cc1 |
| 1330 | CC(C)(C)c1ccc(-c2noc(Cn3c(=O)n(Cc4ccccc4)c(=O)c4sccc43)n2)cc1 |
| 835 | CCNC(=O)C1CCN(c2nc3ccc(-c4ccccc4)nc3s2)CC1 |
| 1280 | CCCc1ccc(S(=O)(=O)N2CCC(c3noc(-c4cccc(OC)c4)n3)CC2)cc1 |
| 1180 | Cc1ccc(-c2nc(-c3ccc4oc(C)nc4c3)no2)cc1 |
| 760 | O=C(Cn1nc2c3ccc(F)cc3ncn2c1=O)Nc1ccc(Cl)cc1 |
